# In patent US20260347373A1, “HETEROCYCLIC COMPOUNDS, COMPOSITIONS THEREOF, AND METHODS OF TREATMENT THEREWITH” (BeOne Medicines I GmbH, priority 2023, published 2026):
# Assays:
# [1] = target: WT KRAS (Homo sapiens, UniProt P01116); experiment: KRAS WT Probe Displacement Assay (TR-FRET, GDP-loaded); assay type: binding; conditions: KRAS WT, read-out: KRAS^WT Probe Displacement Assay IC50
# Excerpt: (§1) The synthetic routes of probe 1 and 2, which have been disclosed in PCT/CN2022/070676, are hereby incorporated herein.
# [2] = target: KRAS G12D (Homo sapiens, UniProt P01116, G12D); experiment: KRAS G12D Probe Displacement Assay (TR-FRET, GDP-loaded); assay type: binding; conditions: KRAS G12D, read-out: KRAS^G12D Probe Displacement Assay IC50
# Excerpt: as §1
# Chain of WT KRAS (P01116 1-188 isoform P01116-2): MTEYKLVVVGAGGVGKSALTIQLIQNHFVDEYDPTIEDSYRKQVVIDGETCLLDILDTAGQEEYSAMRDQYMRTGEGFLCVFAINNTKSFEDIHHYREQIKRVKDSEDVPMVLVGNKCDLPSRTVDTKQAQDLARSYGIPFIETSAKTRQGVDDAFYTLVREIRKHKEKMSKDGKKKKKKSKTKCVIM
# Chain of KRAS G12D (P01116 1-188 isoform P01116-2 G12D): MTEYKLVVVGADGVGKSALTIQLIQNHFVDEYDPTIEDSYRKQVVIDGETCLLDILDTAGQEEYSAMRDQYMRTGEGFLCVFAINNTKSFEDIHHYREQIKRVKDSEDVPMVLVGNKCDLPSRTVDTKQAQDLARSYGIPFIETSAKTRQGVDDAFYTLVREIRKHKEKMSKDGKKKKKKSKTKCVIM
SMILES,IC50 [1] [nM],IC50 [2] [nM]
"Cc1cc(N)cc(-c2nc3c4c(nc(OCC5(CN6C[C@@H](C)O[C@@H](C)C6)CC5(F)F)nc4c2F)N2C[C@H]4CC[C@H](N4)[C@H]2CCO3)c1C(F)(F)F (single isomer, unassigned) [Example 22]",3 to 1000,< 0.3
"Cc1cc(N)cc(-c2nc3c4c(nc(OCC5(C)CC(F)CN(C6CCOCC6)C5)nc4c2F)N2C[C@H]4CC[C@H](N4)[C@H]2CCO3)c1C(F)(F)F (single isomer, unassigned) [Example 235]",3 to 1000,0.3 to 3
"Cc1cc(N)cc(-c2nc3c4c(nc(OCC5(F)COCC5N(C)C)nc4c2F)N2C[C@H]4CC[C@H](N4)[C@H]2CCO3)c1C(F)(F)F (stereo partly drawn) [Example 132, 4-((((6aR,7S,10R)-2-(5-amino-3-methyl-2-(trifluoromethyl)phenyl)-1-fluoro-5,6,6a,7,8,9,10,11-octahydro-4-oxa-3,11a,12,14,15-pentaaza-7,10-methanocyclohepta[4,5]cycloocta [1,2,3-de]naphthalen-13-yl)oxy)methyl)-4-fluoro-N,N-dimethyltetrahydrofuran-3-amine]",3 to 1000,0.3 to 3
"Cc1cc(N)cc(-c2nc3c4c(nc(OCC5(C6CCCN6C)CC5)nc4c2F)N2C[C@H]4CC[C@H](N4)[C@H]2CCO3)c1C(F)(F)F (single isomer, unassigned) [Example 133]",3 to 1000,< 0.3
"COC1CN(C)CC(C)(COc2nc3c4c(nc(-c5cc(N)cc(C)c5C(F)(F)F)c(F)c4n2)OCC[C@@H]2[C@@H]4CC[C@H](CN32)N4)C1 (stereo partly drawn) [Example 126, 3-((6aR,7S,10R)-1-fluoro-13-((5-methoxy-1,3-dimethylpiperidin-3-yl)methoxy)-5,6,6a,7,8,9,10,11-octahydro-4-oxa-3,11a,12,14,15-pentaaza-7,10-methanocyclohepta[4,5]cycloocta[1,2,3-de]naphthalen-2-yl)-5-methyl-4-(trifluoromethyl)aniline]",3 to 1000,0.3 to 3
"Cc1cc(N)cc(-c2nc3c4c(nc(OCC5(CN6C[C@H]7C[C@H]7[C@H]6C)CC5)nc4c2F)N2C[C@H]4CC[C@H](N4)[C@H]2CCO3)c1C(F)(F)F [Example 172, 3-((6aR,7S,10R)-1-fluoro-13-((1-(((1R,2R,5S)-2-methyl-3-azabicyclo[3.1.0]hexan-3-yl)methyl)cyclopropyl)methoxy)-5,6,6a,7,8,9,10,11-octahydro-4-oxa-3,11a,12,14,15-pentaaza-7,10-methanocyclohepta[4,5]cycloocta[1,2,3-de]naphthalen-2-yl)-5-methyl-4-(trifluoromethyl)aniline]",3 to 1000,< 0.3
"COC1CN(CC2(COc3nc4c5c(nc(-c6cc(N)cc(C)c6C(F)(F)F)c(F)c5n3)OCC[C@@H]3[C@@H]5CC[C@H](CN43)N5)CC2)C1 [Example 83, 3-((6aR,7S,10R)-1-fluoro-13-((1-((3-methoxyazetidin-1-yl)methyl)cyclopropyl)methoxy)-5,6,6a,7,8,9,10,11-octahydro-4-oxa-3,11a,12,14,15-pentaaza-7,10-methanocyclohepta [4,5]cycloocta [1,2,3-de]naphthalen-2-yl)-5-methyl-4-(trifluoromethyl)aniline]",3 to 1000,< 0.3
"Cc1cc(N)cc(-c2nc3c4c(nc(OCC5(CN6CC7CC7C6)CC5)nc4c2F)N2C[C@H]4CC[C@H](N4)[C@H]2CCO3)c1C(F)(F)F (stereo partly drawn) [Example 71, 3-((6aR,7S,10R)-13-((1-((3-azabicyclo[3.1.0]hexan-3-yl)methyl)cyclopropyl)methoxy)-1-fluoro-5,6,6a,7,8,9,10,11-octahydro-4-oxa-3,11a,12,14,15-pentaaza-7,10-methanocyclohepta[4,5]cycloocta [1,2,3-de]naphthalen-2-yl)-5-methyl-4-(trifluoromethyl)aniline]",3 to 1000,< 0.3
"Cc1cc(N)cc(-c2nc3c4c(nc(OC[C@]5(CN(C)C)CC5(F)F)nc4c2F)N2C[C@H]4CC[C@H](N4)[C@H]2CC(C)O3)c1C(F)(F)F (single isomer, unassigned) [Example 248]",0.3 to 3,< 0.3
"Cc1cc(N)cc(-c2nc3c4c(nc(O[C@@H](C)[C@@H]5[C@H]6C[C@H]6CN5C)nc4c2F)N2C[C@H]4CC[C@H](N4)[C@H]2CCO3)c1C(F)(F)F [Example 223, 3-((6aR,7S,10R)-1-fluoro-13-((S)-1-((1S,2S,5R)-3-methyl-3-azabicyclo[3.1.0]hexan-2-yl)ethoxy)-5,6,6a,7,8,9,10,11-octahydro-4-oxa-3,11a,12,14,15-pentaaza-7,10-methanocyclohepta[4,5]cycloocta[1,2,3-de]naphthalen-2-yl)-5-methyl-4-(trifluoromethyl)aniline]",3 to 1000,< 0.3
"Cc1cc(N)cc(-c2nc3c4c(nc(OCC5(CN6CCOC7(CCC7)C6)CC5)nc4c2F)N2C[C@H]4CC[C@H](N4)[C@H]2CCO3)c1C(F)(F)F [Example 121, 3-((6aR,7S,10R)-13-((1-((5-oxa-8-azaspiro[3.5]nonan-8-yl)methyl)cyclopropyl)methoxy)-1-fluoro-5,6,6a,7,8,9,10,11-octahydro-4-oxa-3,11a,12,14,15-pentaaza[7,10]methanocyclohepta [4,5]cycloocta[1,2,3-de]naphthalen-2-yl)-5-methyl-4-(trifluoromethyl)aniline]",3 to 1000,< 0.3
"CN(C)C[C@]1(COc2nc3c4c(nc(-c5cc(N)cc(Cl)c5C(F)(F)F)c(F)c4n2)OCC[C@@H]2[C@@H]4CC[C@H](CN32)N4)CC1(F)F [Example 44, 3-chloro-5-((6aR,7S,10R)-13-(((S)-1-((dimethylamino)methyl)-2,2-difluorocyclopropyl)methoxy)-1-fluoro-5,6,6a,7,8,9,10,11-octahydro-4-oxa-3,11a,12,14,15-pentaaza-7,10-methanocyclohepta[4,5]cycloocta [1,2,3-de]naphthalen-2-yl)-4-(trifluoromethyl)aniline]",0.3 to 3,< 0.3
"C=C1CN2C[C@H](F)C[C@@]2(COc2nc3c4c(nc(-c5cc(N)cc(Cl)c5C(F)(F)F)c(F)c4n2)OCC[C@@H]2[C@@H]4CC[C@H](CN32)N4)C1 [Example 209, 3-chloro-5-((6aR,7S,10R)-1-fluoro-13-(((2R,7aR)-2-fluoro-6-methylenetetrahydro-1H-pyrrolizin-7a(5H)-yl)methoxy)-5,6,6a,7,8,9,10,11-octahydro-4-oxa-3,11a,12,14,15-pentaaza-7,10-methanocyclohepta[4,5]cycloocta[1,2,3-de]naphthalene-2-yl)-4-(trifluoromethyl)aniline]",3 to 1000,< 0.3
"Cc1cc(N)cc(-c2nc3c4c(nc(OCC5(CN6CC(C)(O)C6)CC5)nc4c2F)N2C[C@H]4CC[C@H](N4)[C@H]2CCO3)c1C(F)(F)F [Example 81, 1-((1-((((6aR,7S, 10R)-2-(5-amino-3-methyl-2-(trifluoromethyl)phenyl)-1-fluoro-5,6,6a,7,8,9,10,11-octahydro-4-oxa-3,11a,12,14,15-pentaaza-7,10-methanocyclohepta [4,5]cycloocta [1,2,3-de]naphthalen-13-yl)oxy)methyl)cyclopropyl)methyl)-3-methylazetidin-3-ol]",3 to 1000,< 0.3
"CN1CCN(C)C(C)(COc2nc3c4c(nc(-c5cc(N)cc(Cl)c5C(F)(F)F)c(F)c4n2)OCC[C@@H]2[C@@H]4CC[C@H](CN32)N4)C1 (single isomer, unassigned) [Example 3]",3 to 1000,< 0.3
"Cc1cc(N)cc(-c2nc3c4c(nc(OCC5(CN6C[C@@H]7[C@@H](F)[C@@H]7C6)CC5)nc4c2F)N2C[C@H]4CC[C@H](N4)[C@H]2CCO3)c1C(F)(F)F [Example 169, 3-((6aR,7S,10R)-1-fluoro-13-((1-(((1R,5S,6S)-6-fluoro-3-azabicyclo[3.1.0]hexan-3-yl)methyl)cyclopropyl)methoxy)-5,6,6a,7,8,9,10,11-octahydro-4-oxa-3,11a,12,14,15-pentaaza-7,10-methanocyclohepta[4,5]cycloocta[1,2,3-de]naphthalen-2-yl)-5-methyl-4-(trifluoromethyl)aniline]",3 to 1000,< 0.3
"Nc1cc(Cl)c(C(F)(F)F)c(-c2nc3c4c(nc(OCC56C[C@@H](F)CN5C[C@H](F)C6)nc4c2F)N2C[C@H]4CC[C@H](N4)[C@H]2CCO3)c1 [Example 72, 3-chloro-5-((6aR,7S,10R)-13-(((2R,6R)-2,6-difluorotetrahydro-1H-pyrrolizin-7a(5H)-yl)methoxy)-1-fluoro-5,6,6a,7,8,9,10,11-octahydro-4-oxa-3,11a,12,14,15-pentaaza-7,10-methanocyclohepta[4,5]cycloocta [1,2,3-de]naphthalen-2-yl)-4-(trifluoromethyl)aniline]",3 to 1000,< 0.3
"Cc1cc(N)cc(-c2nc3c4c(nc(OCC5(C)CC(F)CN(C)C5)nc4c2F)N2C[C@H]4CC[C@H](N4)[C@H]2CCO3)c1C(F)(F)F (stereo partly drawn) [Example 5, 3-((6aR,7S,10R)-1-fluoro-13-((5-fluoro-1,3-dimethylpiperidin-3-yl)methoxy)-5,6,6a,7,8,9,10,11-octahydro-4-oxa-3,11a,12,14,15-pentaaza-7,10-methanocyclohepta[4,5]cycloocta [1,2,3-de]naphthalen-2-yl)-5-methyl-4-(trifluoromethyl)aniline]",3 to 1000,< 0.3
"Cc1cc(N)cc(-c2nc3c4c(nc(OC[C@@]5(C)CCCN(C6CCOCC6)C5)nc4c2F)N2C[C@H]4CC[C@H](N4)[C@H]2CCO3)c1C(F)(F)F [Example 195, 3-((6aR,7S,10R)-1-fluoro-13-(((S)-3-methyl-1-(tetrahydro-2H-pyran-4-yl)piperidin-3-yl)methoxy)-5,6,6a,7,8,9,10,11-octahydro-4-oxa-3,11a,12,14,15-pentaaza-7,10-methanocyclohepta[4,5]cycloocta[1,2,3-de]naphthalen-2-yl)-5-methyl-4-(trifluoromethyl)aniline]",0.3 to 3,< 0.3
